Measurements as given in patent publication US5246926A, “Cephalosporin derivatives” (Beecham Group p.l.c., priority 1989, dated 1993).
≈ marks a conversion by molar mass, not a printed value.

Experiments:
E. coli (NCTC 10418) = assay: In vitro antibacterial activity, M.I.C. against E. coli; assay type: cell-based; details: Escherichia coli, NCTC10418
S. aureus (Oxford) = assay: In vitro antibacterial activity, M.I.C. against S. aureus; assay type: cell-based; details: Staphylococcus aureus

Compound | MIC (E. coli (NCTC 10418)) [µg/mL] | MIC (S. aureus (Oxford)) [µg/mL]
CO/N=C(\C(=O)N[C@@H]1C(=O)N2C(C(=O)O)=C(C3CCC(=O)O3)CS[C@H]12)c1csc(N)n1 (mixture of isomers) [Example 3, Sodium (6R,7R)-7-[2-(2-Aminothiazol-4-yl)-2-(Z)-methoxyiminoacetamido]-3-[(5RS)-2-oxotetrahydrofuran-5-yl]ceph-3-em-4-carboxylate] | < 0.03 | 1
CO/N=C(\C(=O)N[C@@H]1C(=O)N2C(C(=O)[O-])=C(C3CCOC3=O)CS[C@H]12)c1csc(N)n1.[Na+] (mixture of isomers) [Example 15, Sodium (6R,7R)-7-[2-(2-aminothiazol-4-yl)-2-(Z)-methoxyiminoacetamido]-3-[(3RS)-2-oxotetrahydrofuran-3-yl]ceph-3-em-4-carboxylate] | 0.25 | 4

Results, then the molecule that gave them:

MIC (E. coli (NCTC 10418)) [µg/mL] | MIC (S. aureus (Oxford)) [µg/mL] | Compound
0.12 (≈ 0.235 µM) | 8 (≈ 15.6 µM) | Nc1nc(/C(=N/OCC(=O)O)C(=O)N[C@@H]2C(=O)N3C(C(=O)O)=C(C4CCC(=O)O4)CS[C@H]23)cs1 (stereo partly shown) [Example 10]
32 (≈ 68.5 µM) | 4 (≈ 8.56 µM) | CO/N=C(\C(=O)N[C@@H]1C(=O)N2C(C(=O)O)=C(C3COC(=O)C3)CS[C@H]12)c1csc(N)n1 (stereo partly shown) [Example 8]
< 0.03 | 0.25 | Nc1nc(/C(=N/O)C(=O)N[C@@H]2C(=O)N3C(C(=O)O)=C(C4CCC(=O)O4)CS[C@H]23)cs1 (mixture of isomers) [Example 5, (6R,7R)-7-[2-(2-Aminothiazol-4-yl)-2-(Z)-hydroxyiminoacetamido]-3-[(5RS)-2-oxotetrahydrofuran-5-yl)ceph-3-em-4-carboxylic acid]
